Source: PubChem BioAssay (NCI)
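Dose response: 5 concentrations. Exposure: 48 h. Format: 96-well plates. Endpoint: linear interpolation; highest concentration if not reached. TGI: total growth inhibition.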

Legend:
Test in all cases: DTP human tumour cell line panel, 48 h
[1] = tested on: SK-OV-3 ovarian
[2] = tested on: EKVX NSCLC
[3] = tested on: NCI-H23 lung
[4] = tested on: ACHN renal
[5] = tested on: CCRF-CEM leukemia
[6] = tested on: UACC-62 melanoma
[7] = tested on: NCI-H226 lung
[8] = tested on: SF-539 CNS
[9] = tested on: HOP-62 NSCLC
[10] = tested on: SN12C renal
[11] = tested on: HCC-2998 colon
[12] = tested on: M14 melanoma
[13] = tested on: LOX IMVI melanoma
[14] = tested on: RPMI-8226 leukemia
[15] = tested on: KM12 colon
[16] = tested on: SK-MEL-28 melanoma
[17] = tested on: IGROV1 ovarian
[18] = tested on: OVCAR-3 ovarian
[19] = tested on: A549 NSCLC
[20] = tested on: K-562 leukemia
[21] = tested on: SF-295 CNS
[22] = tested on: SR leukemia
[23] = tested on: OVCAR-8 ovarian
[24] = tested on: TK-10 renal
[25] = tested on: HL-60(TB) leukemia
[26] = tested on: SNB-19 CNS
[27] = tested on: HT29 colon
[28] = tested on: SNB-78 CNS
[29] = tested on: OVCAR-5 ovarian
[30] = tested on: SNB-75 CNS
[31] = tested on: SF-268 CNS
[32] = tested on: DMS 273 small cell lung
[33] = tested on: HOP-92 NSCLC
[34] = tested on: NCI-H460 lung
[35] = tested on: HCT-15 colon
[36] = tested on: 786-0 renal
[37] = tested on: MALME-3M melanoma
[38] = tested on: SK-MEL-5 melanoma
[39] = tested on: SK-MEL-2 melanoma
[40] = tested on: UACC-257 melanoma
[41] = tested on: KM20L2 colon
[42] = tested on: CAKI-1 renal
[43] = tested on: UO-31 renal
[44] = tested on: RXF 393 renal
[45] = tested on: U251 CNS
[46] = tested on: HCT-116 colon
[47] = tested on: M19-MEL melanoma
[48] = tested on: COLO 205 colon
[49] = tested on: XF 498 CNS
[50] = tested on: SW-620 colon
[51] = tested on: MOLT-4 leukemia
[52] = tested on: HOP-18 NSCLC
[53] = tested on: LXFL 529 NSCLC
[54] = tested on: DMS 114 small cell lung
[55] = tested on: NCI-H522 lung
[56] = tested on: DLD-1 colon
[57] = tested on: OVCAR-4 ovarian
[58] = tested on: A498 renal

COc1cccc(/C(C=O)=C(\Cl)c2ccc(OC)c(OC)c2)c1
TGI [1]: 58.8 µM | TGI [2]: 33.9 µM | TGI [3]: 24.9 µM | TGI [4]: 26.4 µM | TGI [5]: 33.5 µM | TGI [6]: 17.4 µM | TGI [7]: 28.1 µM | TGI [8]: 30.4 µM | TGI [9]: 25.1 µM | TGI [10]: 27.8 µM | TGI [11]: 29.8 µM | TGI [12]: 31.6 µM | TGI [13]: 28.7 µM | TGI [14]: 48.8 µM | TGI [15]: 29.1 µM | TGI [16]: 29 µM | TGI [17]: 41.8 µM | TGI [18]: 30.2 µM | TGI [19]: 46.8 µM | TGI [20]: 46.2 µM | TGI [21]: 28.9 µM | TGI [22]: 82.1 µM | TGI [23]: 30.3 µM | TGI [24]: 73 µM | TGI [25]: 20.7 µM | TGI [26]: 16.3 µM | TGI [27]: 27.5 µM | TGI [28]: 37.7 µM | TGI [29]: 36.9 µM | TGI [30]: 21.3 µM | TGI [31]: 25.3 µM | TGI [32]: 27.3 µM | TGI [33]: 38.7 µM | TGI [34]: 28 µM | TGI [35]: 25.6 µM | TGI [36]: 30.7 µM | TGI [37]: 29 µM | TGI [38]: 25.3 µM | TGI [39]: 42.8 µM | TGI [40]: 29.3 µM | TGI [41]: 44.1 µM | TGI [42]: 45.1 µM | TGI [43]: 28.2 µM | TGI [44]: 25.1 µM | TGI [45]: 27.4 µM | TGI [46]: 22.5 µM | TGI [47]: 23.4 µM | TGI [48]: 27.5 µM | TGI [49]: 31.1 µM | TGI [50]: 29.6 µM | TGI [51]: 42.5 µM | TGI [52]: 27.8 µM | TGI [53]: 24.4 µM | TGI [54]: 30.5 µM | TGI [55]: 22.1 µM | TGI [56]: 25.5 µM | TGI [57]: 39.1 µM

CN(/N=C/c1ccnc2ccccc12)c1ccc([N+](=O)[O-])cc1[N+](=O)[O-]
TGI [1]: > 100 µM | TGI [2]: > 100 µM | TGI [3]: > 100 µM | TGI [4]: > 100 µM | TGI [5]: > 100 µM | TGI [6]: > 100 µM | TGI [7]: > 100 µM | TGI [8]: > 100 µM | TGI [9]: 89.1 µM | TGI [10]: > 100 µM | TGI [11]: > 100 µM | TGI [12]: > 100 µM | TGI [13]: > 100 µM | TGI [14]: > 100 µM | TGI [15]: > 100 µM | TGI [16]: > 100 µM | TGI [17]: > 100 µM | TGI [18]: > 100 µM | TGI [19]: > 100 µM | TGI [20]: > 100 µM | TGI [21]: > 100 µM | TGI [23]: > 100 µM | TGI [24]: > 100 µM | TGI [25]: > 100 µM | TGI [26]: > 100 µM | TGI [27]: > 100 µM | TGI [28]: > 100 µM | TGI [29]: > 100 µM | TGI [30]: 40 µM | TGI [31]: > 100 µM | TGI [32]: > 100 µM | TGI [33]: > 100 µM | TGI [34]: > 100 µM | TGI [35]: > 100 µM | TGI [36]: 74.6 µM | TGI [37]: > 100 µM | TGI [38]: > 100 µM | TGI [39]: 79.1 µM | TGI [40]: > 100 µM | TGI [41]: > 100 µM | TGI [42]: > 100 µM | TGI [43]: > 100 µM | TGI [44]: > 100 µM | TGI [58]: > 100 µM | TGI [45]: > 100 µM | TGI [47]: > 100 µM | TGI [48]: > 100 µM | TGI [49]: > 100 µM | TGI [50]: > 100 µM | TGI [51]: > 100 µM | TGI [52]: > 100 µM | TGI [53]: > 100 µM | TGI [54]: > 100 µM | TGI [55]: > 100 µM | TGI [56]: > 100 µM | TGI [57]: > 100 µM
